Earlier results, collected in patent US20070237796A1, “Stable High Pl Hydrogel Compositions” (priority 2003, published 2007).
Where two headings read alike, the source gives them in different places.

| pKa | SMILES | pKa (secondary OH) |
| --- | --- | --- |
| 12.39 | O=C[C@H](O)[C@@H](O)[C@@H](O)[C@H](O)CO [Galactose] |  |
| 11.98 | OC[C@H]1O[C@@H](O[C@H]2[C@H](O)[C@@H](O)C(O)O[C@@H]2CO)[C@H](O)[C@@H](O)[C@H]1O (stereo partly drawn) [Lactose] |  |
| 12.15 | O=C[C@H](O)[C@@H](O)[C@H](O)CO [Xylose] |  |
| 13.71 | CO[C@H]1O[C@H](CO)[C@@H](O)[C@H](O)[C@H]1O [α-Methyl glucoside] |  |
|  | OC[C@H]1O[C@@H]2O[C@H]3[C@H](O)[C@@H](O)[C@@H](O[C@H]4[C@H](O)[C@@H](O)[C@@H](O[C@H]5[C@H](O)[C@@H](O)[C@@H](O[C@H]6[C@H](O)[C@@H](O)[C@@H](O[C@H]7[C@H](O)[C@@H](O)[C@@H](O[C@H]8[C@H](O)[C@@H](O)[C@@H](O[C@H]1[C@H](O)[C@H]2O)O[C@@H]8CO)O[C@@H]7CO)O[C@@H]6CO)O[C@@H]5CO)O[C@@H]4CO)O[C@@H]3CO [β-cyclodextrin] | 12.20 (secondary OH) |
|  | OC[C@H]1O[C@@H]2O[C@H]3[C@H](O)[C@@H](O)[C@@H](O[C@H]4[C@H](O)[C@@H](O)[C@@H](O[C@H]5[C@H](O)[C@@H](O)[C@@H](O[C@H]6[C@H](O)[C@@H](O)[C@@H](O[C@H]7[C@H](O)[C@@H](O)[C@@H](O[C@H]8[C@H](O)[C@@H](O)[C@@H](O[C@H]9[C@H](O)[C@@H](O)[C@@H](O[C@H]1[C@H](O)[C@H]2O)O[C@@H]9CO)O[C@@H]8CO)O[C@@H]7CO)O[C@@H]6CO)O[C@@H]5CO)O[C@@H]4CO)O[C@@H]3CO [γ-cyclodextrin] | 12.05 (secondary OH) |
